We go through 17 molecules from patent US10968462B2, “Plants having increased tolerance to herbicides” (BASF AGRO B.V., priority 2013, dated 2021).

Substitutions are numbered along the chain they refer to. Several values for one entry are separate records, joined by “and”; a condition that tells them apart may be missing. Equal values may be shown once. Read-outs that look alike come from different tables or passages of the source. Bounds are passed on as bounds.

Holding throughout (assay type): biochemical, Amaranthus tuberculatum
For experiment [1], the target named is T1, wild type and amino acid substituted PPO enzyme (PPO2) of SEQ ID NO: 2 (AMARE) (Amaranthus tuberculatus, UniProt Q0NZW9, L397Q/F420M, form not given).
T1 sequence (Q0NZW9 1-534 L397Q/F420M): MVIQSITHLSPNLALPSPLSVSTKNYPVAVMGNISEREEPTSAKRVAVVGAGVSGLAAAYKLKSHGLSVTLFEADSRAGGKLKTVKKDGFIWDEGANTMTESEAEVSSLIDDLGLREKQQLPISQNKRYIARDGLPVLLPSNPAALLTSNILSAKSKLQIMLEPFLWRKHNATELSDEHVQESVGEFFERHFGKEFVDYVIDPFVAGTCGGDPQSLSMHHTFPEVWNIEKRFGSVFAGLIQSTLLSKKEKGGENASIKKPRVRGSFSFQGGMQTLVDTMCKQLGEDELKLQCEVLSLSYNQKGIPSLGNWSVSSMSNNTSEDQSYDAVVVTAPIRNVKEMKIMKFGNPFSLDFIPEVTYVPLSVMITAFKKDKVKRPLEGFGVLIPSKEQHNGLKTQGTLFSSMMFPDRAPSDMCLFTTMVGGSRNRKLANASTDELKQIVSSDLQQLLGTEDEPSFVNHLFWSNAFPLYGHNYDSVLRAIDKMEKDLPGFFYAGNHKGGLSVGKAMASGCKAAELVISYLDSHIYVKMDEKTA

The target of experiment [2] is T2, wild type and amino acid substituted PPO enzyme (PPO2) of SEQ ID NO: 2 (AMARE) (Amaranthus tuberculatus, UniProt Q0NZW9, R128Y/F420I, form not given).
T2 sequence (Q0NZW9 1-534 R128Y/F420I): T1 sequence (Q0NZW9 1-534 L397Q/F420M) with R128Y, Q397L, M420I

Experiment [3] concerns the target T3, wild type and amino acid substituted PPO enzyme (PPO2) of SEQ ID NO: 2 (AMARE) (Amaranthus tuberculatus, UniProt Q0NZW9, R128N/F420M, form not given).
T3 sequence (Q0NZW9 1-534 R128N/F420M): T1 sequence (Q0NZW9 1-534 L397Q/F420M) with R128N, Q397L

The target in experiment [4] is T4, wild type and amino acid substituted PPO enzyme (PPO2) of SEQ ID NO: 2 (AMARE) (Amaranthus tuberculatus, UniProt Q0NZW9, R128Y/F420M, form not given).
T4 sequence (Q0NZW9 1-534 R128Y/F420M): T1 sequence (Q0NZW9 1-534 L397Q/F420M) with R128Y, Q397L

By IC50 is commonly meant the point on the concentration scale where inhibition reaches its midpoint. Take `CCOCCOC(=O)C(OC)Oc1ccccc1Oc1cc(-n2c(=O)cc(C(F)(F)F)n(C)c2=O)c(F)cc1Cl` (centres unmarked): half-maximal inhibition in experiment [1] (IC50) required 933 nM.
Molecule `COC(Oc1ccccc1Oc1cc(-n2c(=O)cc(C(F)(F)F)n(C)c2=O)c(F)cc1Cl)C(=O)OCC(F)F` (centres unmarked) registered an IC50 in experiment [1] of 319 nM.
The same measure, in the same setting: the result for `COC(Oc1ccccc1Oc1cc(-n2c(=O)cc(C(F)(F)F)n(C)c2=O)c(F)cc1Cl)C(=O)OCc1ccncc1` (centres unmarked) reads 945 nM; that for `COC(Oc1ccccc1Oc1cc(-n2c(=O)cc(C(F)(F)F)n(C)c2=O)c(F)cc1Cl)C(=O)OCC1(C)CC1` (centres unmarked), 456 nM.
`COC(Oc1ccccc1Oc1cc(-n2c(=O)cc(C(F)(F)F)n(C)c2=O)c(F)cc1Cl)C(=O)OC1CCCCC1` (centres unmarked) yielded an IC50 in experiment [1] of 642 nM.
Same read-out and setting: for `COC(=O)C(OC)Oc1ccccc1Oc1cc(-n2c(=O)cc(C(F)(F)F)n(C)c2=O)c(F)cc1Cl` (centres unmarked) the value was 359 nM.
With `CCOC(=O)COc1ncccc1Oc1cc(-n2c(=O)cc(C(F)(F)F)n(C)c2=O)c(F)cc1Cl` [A.13, ethyl [3-[2-chloro-4-fluoro-5-(1-methyl-6-trifluoromethyl-2,4-dioxo-1,2,3,4-tetrahydropyrimidin-3-yl)phenoxy]-2-pyridyloxy]acetate, reference compound], the concentration for half-maximal inhibition (IC50) in experiment [2] turned out to be 464 nM; in experiment [3] it was 192 nM; in experiment [4], 89.2 nM.
As for `O=C(O)c1cc(Oc2ccc(C(F)(F)F)cc2Cl)ccc1[N+](=O)[O-]` [ACIFLUORFEN], in experiment [2], the IC50 was at least 10000 nM and the “inhibition (%) at 1 × 10−5M” value is recorded as 21%. In experiment [4], this molecule had an IC50 of at least 10000 nM.
With `C#CCN1C(=O)C(F)(F)Oc2cc(F)c(-n3c(=O)n(C)c(=S)n(C)c3=O)cc21` [BAS 850H], in experiment [3], the IC50 was 71.2 nM and 49.7 nM.
For `C=CCOC(=O)C(C)(C)OC(=O)c1cc(-n2c(=O)cc(C(F)(F)F)n(C)c2=O)ccc1Cl` [BUTAFENACIL], the IC50 in experiment [2] came out at 54.7 nM; in experiment [3] it was 28.4 nM; in experiment [4], 50.4 nM.
For `CCOC(=O)C(Cl)Cc1cc(-n2nc(C)n(C(F)F)c2=O)c(F)cc1Cl` (centres unmarked) [CARFENTRAZONE-ETHYL], in that order: 282 nM, 188 nM and 85.2 nM.
With `CCOC(=O)/C(Cl)=C/c1cc(N2C(=O)C3=C(CCCC3)C2=O)ccc1Cl` [CINIDON-ETHYL], in experiment [2], the “inhibition (%) at 1 × 10−5M” value is reported as 38%. In addition, the results for the IC50 in experiment [2] (read-out: IC50), in experiment [3] (read-out: IC50) and in experiment [4] (read-out: IC50) were at least 10000 nM, at least 10000 nM and 10800 nM, respectively.
As for `C#CCN1C(=O)COc2cc(F)c(N3C(=O)C4=C(CCCC4)C3=O)cc21` [FLUMIOXAZIN], the IC50 in experiment [2] is at least 10000 nM; in experiment [3], 6150 nM; in experiment [4], at least 10000 nM. The “inhibition (%) at 1 × 10−5M” value in experiment [2] is 19%; in experiment [4], −2%.
`CS(=O)(=O)NC(=O)c1cc(Oc2ccc(C(F)(F)F)cc2Cl)ccc1[N+](=O)[O-]` [FOMESAFEN]: the IC50 is 21500 nM in experiment [2], 10700 nM in experiment [3] and at least 10000 nM in experiment [4]. For the same molecule, in experiment [4], the “inhibition (%) at 1 × 10−5M” value is on record as 28%.
Take `CCOC(=O)C(C)OC(=O)c1cc(Oc2ccc(C(F)(F)F)cc2Cl)ccc1[N+](=O)[O-]` (centres unmarked) [LACTOFEN]: the results for the IC50 in experiment [2], in experiment [3] and in experiment [4] were 48 nM, 167 nM and 143 nM, respectively.
For `CCOc1cc(Oc2ccc(C(F)(F)F)cc2Cl)ccc1[N+](=O)[O-]` [OXIFLUORFEN], in that order: 1170 nM, 391 nM and 1130 nM.
Regarding OXADIARGYL, the IC50 came out at 173 nM in experiment [2] (read-out: IC50), 128 nM in experiment [3] (read-out: IC50) and 36 nM in experiment [4] (read-out: IC50).
